Among the test systems are 786-0; ACHN; DU-145; HCT-15; HL-60; HOP-92; HT-29; MDA-MB-435; Malme-3M; NCI-H460; NCI-H522; OVCAR-3; OVCAR-4; SK-MEL-2; SK-MEL-5; SN12C; SNB-75; SW-620; UACC-62; UO-31.
Holding throughout (experiment): DTP human tumour cell line panel, 48 h

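Step 1: Grow cells in 96-well plates. Step 2: Expose to compound for 48 hours at 5 concentrations. Step 3: Interpolate endpoints linearly; if unreached, use highest concentration. GI50 is the concentration that inhibits growth by half.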 Activity calls are given as the source filed them. No stated cut-off is given here; in the data, active = GI50 up to about 1.1 µM and inactive = higher. Bounds are passed on as bounds.

As for `O=C(O)c1ccccc1Sc1ccccc1[N+](=O)[O-]`, the GI50 in the assay on 786-0 was > 100 µM (inactive); with ACHN, > 100 µM (inactive); in the assay with DU-145 it was > 100 µM (inactive); with HCT-15, greater than 100 µM; in the assay on HL-60 it was > 100 µM (inactive); with HOP-92, > 100 µM (inactive). For the same compound, the GI50 with HT-29, in the assay on MDA-MB-435, with Malme-3M, in the assay with NCI-H460, in the assay with NCI-H522 and in the assay with OVCAR-3 was > 100 µM (inactive) throughout. Further, the GI50 in the assay on OVCAR-4 was > 100 µM (inactive); with SK-MEL-2, > 100 µM (inactive); with SK-MEL-5, > 100 µM (inactive); in the assay with SN12C, > 100 µM (inactive); in the assay with SNB-75, 76.9 µM (inactive); in the assay with SW-620, > 100 µM (inactive). Also, the GI50 in the assay with UACC-62 and in the assay on UO-31 was > 100 µM (inactive) in each case.

Regarding `O=C(NC(CS)C(=O)O)c1c2ccccc2nc2ccccc12` (stereo not drawn), the GI50 is > 100 µM (inactive) in the assay with 786-0; 21.3 µM (inactive) in the assay with ACHN; 30.7 µM (inactive) with DU-145; 12.8 µM in the assay with HCT-15; 0.16 µM (active) in the assay with HL-60; > 100 µM (inactive) with HOP-92. Also, the GI50 in the assay with HT-29 is 14.5 µM (inactive); in the assay on MDA-MB-435 it was 2.81 µM (inactive); with Malme-3M, 15.2 µM (inactive); with NCI-H460, 23.6 µM (inactive); in the assay on NCI-H522, 31.1 µM (inactive); in the assay with OVCAR-3, > 100 µM (inactive). Besides, the GI50 was > 100 µM (inactive) in the assay on OVCAR-4; 47.8 µM (inactive) in the assay with SK-MEL-2; 3.28 µM (inactive) in the assay with SK-MEL-5; > 100 µM (inactive) in the assay with SN12C; 83.8 µM (inactive) with SNB-75; 34 µM (inactive) with SW-620. For the same compound, the GI50 was 48.8 µM (inactive) in the assay with UACC-62 and 3.87 µM (inactive) in the assay on UO-31.

With `COc1ccc(C2NC(=O)Nc3c2c(=O)oc2c3ccc3ccccc32)cc1` (stereo not drawn), the GI50 in the assay on 786-0 is 67 µM (inactive); with ACHN, 51.6 µM (inactive); in the assay with DU-145, > 100 µM (inactive); with HCT-15, 46.1 µM; in the assay with HL-60, 70.8 µM (inactive); in the assay with HOP-92, 35.2 µM (inactive). Also, the GI50 was 77.6 µM (inactive) in the assay on HT-29; 56.5 µM (inactive) with MDA-MB-435; 68.9 µM (inactive) in the assay on Malme-3M; 50.8 µM (inactive) in the assay on NCI-H460; 53.2 µM (inactive) with NCI-H522; 92.9 µM (inactive) with OVCAR-3. Besides, the GI50 with OVCAR-4 was 48 µM (inactive); in the assay on SK-MEL-2, 26.4 µM (inactive); with SK-MEL-5, 71.6 µM (inactive); in the assay on SN12C it was 68.7 µM (inactive); in the assay with SNB-75, 22.3 µM (inactive); in the assay with SW-620 it was > 100 µM (inactive). Further, the GI50 in the assay with UACC-62 is 29.6 µM (inactive); with UO-31 it was 52.7 µM (inactive).

`Cc1cc2nc(O)c(C(C)C(=O)c3ccc(Cl)cc3)nc2cc1C` (stereo not drawn): the GI50 in the assay with 786-0 is 27.6 µM (inactive); in the assay with ACHN, 54.1 µM (inactive); in the assay with DU-145, 53.1 µM (inactive); with HCT-15, 44.7 µM; with HL-60 it was 21.2 µM (inactive); in the assay on HOP-92 it was 59.3 µM (inactive). The GI50 is 22.1 µM (inactive) in the assay on HT-29; 20.1 µM (inactive) in the assay with MDA-MB-435; 71.6 µM (inactive) in the assay on Malme-3M; 29.9 µM (inactive) in the assay on NCI-H460; 31.6 µM (inactive) with NCI-H522; 49.1 µM (inactive) with OVCAR-3. Also, the GI50 in the assay on OVCAR-4 was 31.6 µM (inactive); in the assay with SK-MEL-2 it was > 100 µM (inactive); with SK-MEL-5 it was 38.1 µM (inactive); with SN12C, 50.7 µM (inactive); in the assay on SNB-75, 35.4 µM (inactive); with SW-620 it was 28.8 µM (inactive). The GI50 in the assay with UACC-62 and in the assay on UO-31 was 46.9 µM (inactive) each time.

As to `CC(C)CCC1(CCN)C(=O)NC(=O)NC1=O`, the GI50 in the assay with 786-0 is > 100 µM (inactive); in the assay with ACHN it was > 100 µM (inactive); in the assay on DU-145, > 100 µM (inactive); with HCT-15, greater than 100 µM; in the assay with HL-60, 38.2 µM (inactive); with HOP-92, > 100 µM (inactive). Besides, the GI50 with HT-29, in the assay on MDA-MB-435, in the assay with Malme-3M, with NCI-H460, in the assay with NCI-H522 and in the assay on OVCAR-3 was > 100 µM (inactive) each time. The GI50 with OVCAR-4, with SK-MEL-2, in the assay with SK-MEL-5, with SN12C, in the assay on SNB-75 and in the assay with SW-620 was > 100 µM (inactive) throughout. Besides, the GI50 with UACC-62 and in the assay with UO-31 was > 100 µM (inactive) throughout.

On to `N#Cc1ccc(C2ON=C(c3ccccc3)N2C23CC4CC(CC(C4)C2)C3)cc1` (stereo not drawn), for which the GI50 in the assay with 786-0 was > 10 µM (inactive); in the assay on ACHN, > 10 µM (inactive); in the assay with DU-145 it was > 10 µM (inactive); with HCT-15 it was greater than 10 µM; in the assay on HL-60, 4.05 µM (inactive); with HOP-92, > 10 µM (inactive). Further, the GI50 in the assay on HT-29, in the assay on MDA-MB-435, in the assay on Malme-3M, in the assay with NCI-H460, with NCI-H522 and in the assay on OVCAR-3 was > 10 µM (inactive) in each case. For the same compound, the GI50 in the assay with OVCAR-4, in the assay with SK-MEL-2, in the assay with SK-MEL-5, in the assay with SN12C, in the assay on SNB-75 and in the assay on SW-620 was > 10 µM (inactive) each time. Also, in the assay on UACC-62, the GI50 is > 10 µM (inactive).

On to `CCN1CCN(c2nc3ccccc3nc2C(=O)c2ccc(OC)cc2)CC1`, for which the GI50 was 19.4 µM (inactive) with 786-0; 27.8 µM (inactive) in the assay on ACHN; > 100 µM (inactive) in the assay on DU-145; 49.4 µM with HCT-15; > 100 µM (inactive) in the assay on HL-60; 18.3 µM (inactive) with HOP-92. For the same compound, the GI50 in the assay on HT-29 is 23.9 µM (inactive); in the assay with MDA-MB-435, 44.3 µM (inactive); in the assay on Malme-3M, 16.5 µM (inactive); with NCI-H460 it was 21.5 µM (inactive); in the assay with NCI-H522, 53.6 µM (inactive); with OVCAR-3 it was 69.7 µM (inactive). Besides, the GI50 was 57.5 µM (inactive) in the assay on OVCAR-4; 41 µM (inactive) with SK-MEL-2; 37.2 µM (inactive) with SK-MEL-5; 37.2 µM (inactive) in the assay with SNB-75; 30.3 µM (inactive) with SW-620; 20.6 µM (inactive) with UACC-62. The GI50 in the assay with UO-31 is 19.7 µM (inactive).

(Values after ChEMBL document CHEMBL1201862, “PubChem BioAssay data set” (2004).)
